Results reported in patent US20240060131A1, “METHOD FOR IDENTIFYING AND/OR REGULATING SENESCENCE” (INSTITUTE OF ZOOLOGY, CHINESE ACADEMY OF SCIENCES, priority 2020, published 2024).
“Also recorded” adds a separate entry of the source.

Columns and labels:
Type in all cases: cell-based, human
HERVK-LTR5HS = assay: ChIP-qPCR of 5 mC occupation in HERVK-LTR5HS in treated hMPCs; conditions: hMPCs of early passage; vs cells not treated
Procedure: (§1) For 5-azacytidine (5-AZA) treatment, hMPCs were seeded (generation 0 (P0) after treatment), and treated by […] 5-AZA for 4 days, followed by passage and culture in fresh medium. At P2 after treatment (6 days after 5-AZA treatment), cells was used for Ki67 immunofluorescence, SA-O-gal staining and RNA/DNA extraction.
Cells were fixed in 1% formaldehyde dissolved in PBS at room temperature for 10 min, and then, quenched by 125 mM glycine. Cells were lysed on ice for 10 min, and subjected to ultrasonic treatment with Covaris S220. Collected supernatant was incubated with Dynabeads Protein A (Life Technologies, 10001D) pre-mixed with 2.3 μg specified antibody at 4° C. overnight. After washing, samples were digested by Protease K (New England Biolabs), eluted and cross-link-reversed on thermal mixer at 68° C. for 2 h. DNA was extracted with phenol-chloroform-isoamylol, and eluted DNA was analyzed by qPCR.
5-AZA (a DNA methyltransferase inhibitor (DNMTi)) was used to treat hMPCs of early passage. ChIP-qPCR and RT-qPCR analyses were performed on treated cells, cells not treated by 5-AZA were used as control.

HERVK = assay: RT-qPCR and Western blot of HERVK and senescence markers in hMPCs after HERVK activation or 5-AZA treatment; conditions: RT-qPCR
Procedure: (§2) Cells were lysed in 1×SDS buffer (100 mM Tris-HCl, pH 6.8, 10% glycerol, 2% SDS and 2%2-mercaptoethanol), boiled for 10 min at 105° C. Protein concentration was measured by BCA kit. Cell lysate was subjected to SDS-PAGE electrophoresis, then transferred to PVDF membrane (Millipore). The membrane was incubated with primary antibody, incubated with secondary antibody conjugated to HRP after washing, then blotted with substrate, the substrate was the mixture of 1000 μL substrate A and 3 μL substrate B (substrate A: 0.2 mM cumaric acid, 1.25 mM luminal, 0.1 M Tris-HCl, pH 8.5; substrate B: 3% H2O2) or Super Signal West Femto Maximum Sensitivity Substrate (Thermo Fisher Scientific). Images were taken by Image Lab software. Quantification was conducted by ImageJ.
(§3) In accordance with the manufacturer's instructions, total RNA of cell was extracted by TRIzol (Thermo Fisher Scientific); reverse transcribed into cDNA with GoScript reverse transcription system (Promega) for RT-qPCR; RT-qPCR was conducted with THUNDERBIRD qPCR Mix (TOYOBO) and CFX384 real-time system (Bio-Rad Laboratories, Inc.).
To activate endogenous HERVK, non-targeted control or lentivirus construct with HERVK LTR targeted sgRNA was cloned to lenti-SAM v2 (addgene #75112) through ESP3I site, and co-transfected with lenti-MPH v2 (addgene #89308). […]
HERVK-activated cell was analyzed by RT-qPCR and Western blot. […]

hMPCs = assay: Analysis of classical aging characteristics (SA-β-gal, Ki67, clonal expansion) in hMPCs; conditions: hMPCs after HERVK activation or 5-AZA treatment
Procedure: Cells seeded on coverslip (Thermo Fisher Scientific) were washed by PBS, fixed in 4% paraformaldehyde (PFA), permeabilized in 0.4% Triton X-100, blocked by 10% donkey serum. The coverslip was incubated with primary antibody at 4° C. in blocking buffer, then incubated with secondary antibody at room temperature for 1 h. Nucleus was labelled by Hoechst 33342 (Invitrogen).
as §1
For lentivirus transduction, hMPCs were seeded (P0 after treatment) and incubated with lentivirus in the presence of polybrene (Sigma-Aldrich) for 24 h. After two passages, treated cells were used for Ki67 immunofluorescence, SA-β-gal staining and RNA/DNA extraction.
5 thousand cells were seeded in one well of 6-well plate (Corning) cover with gelatin (Sigma), and cultured for about 10 days. Cells were fixed by 4% PFA, stained by 10% crystal violet for 30 min. Relative cell integral density was calculated by ImageJ software.
Cells were fixed by a buffer containing 2% (w/v) formaldehyde and 0.2% (w/v) glutaraldehyde for 5 min, and treated by staining buffer containing 1 mg/mL X-gal at 37° C. overnight.
In particular, relative percentage of cells positive for senescence associated β-galactosidase (SA-β-gal) was increased, the number of Ki67 positive cells was decreased and the clonal expansion ability was reduced (as shown by FIGS. 12C-12E).

cGAS-STING pathway = assay: cGAS-STING innate immune pathway and SASP in hMPCs (Western blot, RT-qPCR); conditions: hMPCs with activated endogenous HERVK
Procedure: as §2, §3
To further study the activation of cGAS-STING DNA sensing pathway, the following key characteristics in different senescent hMPCs (including RS, HGPS and WS) and fibroblasts were detected: […] TANK binding kinase 1 (TBK1) and IFN regulating factor 3 (IRF3) as well as proinflammatory cytokines (e.g., IL1B andIL6), these factors were regarded as SASP factors.

Question: With Nc1ncn([C@@H]2O[C@H](CO)[C@@H](O)[C@H]2O)c(=O)n1 [5-AZA, 5-azacytidine] as the molecule, how does the “5 mC occupation in HERVK-LTR5HS” value (HERVK-LTR5HS) read?
Answer: reduce; also recorded: decrease

Question: What about the “senescence marker p16INK4a level” value (HERVK) of the same molecule?
Answer: increased

Question: What about the “HERVK RNA level” value (HERVK; vs untreated or non-targeting sgRNA control) of the same molecule?
Answer: increase

Question: What about the SA-β-gal positive cells (hMPCs) of the same molecule?
Answer: increased

Question: And the “cell senescence (overall)” value (hMPCs)?
Answer: caused premature senescence; also recorded: induces senescence

Question: What about the clonal expansion ability (hMPCs) of the same molecule?
Answer: reduced

Question: What about the “number of Ki67 positive cells” value (hMPCs) of the same molecule?
Answer: decreased

Question: And the “expression of SASP cytokine” value (cGAS-STING pathway)?
Answer: up-regulated

Question: What about the “level of phosphorylated IRF3” value (cGAS-STING pathway) of the same molecule?
Answer: increased

Question: What about the “level of phosphorylated RelA” value (cGAS-STING pathway) of the same molecule?
Answer: increased

Question: And the “level of phosphorylated TBK1” value (cGAS-STING pathway)?
Answer: increased
